Laboratory results published in patent US20220323548A1 (priority 2019, published 2022).
No end group written: not given here. *: point of attachment. undeca‑saccharide = not defined here; Decanoyl = CCCCCCCCCC(=O)*

B1: AGM-212(E17C-11 sugar) (peptide)
peptide: HGEGTFTSDLSKQMEEC(undeca‑saccharide)AVRLFIEWLKNGGPSK(Decanoyl)
modifications: reading uncertain
B2: AGM-212(E17C-11 sugar & N28C-11 sugar) (peptide)
peptide: HGEGTFTSDLSKQMEEC(undeca‑saccharide)AVRLFIEWLKC(undeca‑saccharide)GGPSK(Decanoyl)
modifications: reading uncertain
B3: AGM-212(E17C-11 sugar & E24C-11 sugar) (peptide)
peptide: HGEGTFTSDLSKQMEEC(undeca‑saccharide)AVRLFIC(undeca‑saccharide)WLKNGGPSK(Decanoyl)
modifications: reading uncertain

How the values were obtained:
human GLP-1R [1] = target: human GLP-1R (Homo sapiens, UniProt P43220); experiment: GLP-1 receptor luciferase reporter assay (part I, glycosylated analogs); assay type: cell-based; conditions: CV-1 cells transfected with human GLP-1R and CRE, Table 2
Sequence of human GLP-1R (Homo sapiens, UniProt P43220) (P43220 24-463): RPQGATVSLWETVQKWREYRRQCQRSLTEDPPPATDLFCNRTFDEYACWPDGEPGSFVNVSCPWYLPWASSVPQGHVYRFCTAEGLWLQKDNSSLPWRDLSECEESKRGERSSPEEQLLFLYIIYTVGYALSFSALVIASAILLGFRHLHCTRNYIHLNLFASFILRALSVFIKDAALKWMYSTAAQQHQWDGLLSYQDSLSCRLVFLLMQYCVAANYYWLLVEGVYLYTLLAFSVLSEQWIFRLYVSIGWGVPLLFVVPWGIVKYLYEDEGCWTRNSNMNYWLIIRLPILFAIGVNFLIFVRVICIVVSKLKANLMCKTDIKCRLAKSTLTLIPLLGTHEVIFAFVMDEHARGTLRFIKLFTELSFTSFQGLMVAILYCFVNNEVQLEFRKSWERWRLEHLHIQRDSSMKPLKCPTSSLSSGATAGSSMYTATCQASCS
Procedure: Specifically, the fibroblast cell line CV-1 (1×10^4 cells/ml, Korea Cell Line Bank) was cultured on a 96-well white cell culture plate for 24 hours, and then human GLP-1R (pcDNA3.1_hGLP-1R) and cAMP response element (CRE, pcDNA3.1_hCRE) were added to perform transfection. After 24 hours, the medium was exchanged with a serum-free medium, followed by culture for 16 hours, and then each analog was treated for 6 hours. The expression level of luciferase, a reporter gene, by activated GLP-1R, was quantified by a luminometer, and the results are shown in Table 2.

rat islets = experiment: Glucose-dependent insulin secretion from rat islets, rat insulin ELISA (part I); assay type: cell-based; conditions: 28 mM glucose
Source text: Specifically, the pancreas of 8-week-old SD rats (Damul Science) was extracted, and islets were isolated.

human GLP-1R [2] = target: human GLP-1R (human, UniProt P43220 24-463); experiment: cell-based or functional assay

Molecule	Emax (fold induction over basal) (human GLP-1R [1])	Emax (fold induction over basal), CRE-luciferase reporter (human GLP-1R [2]) [fold induction over basal]	further results
CCCCCCCCCC(=O)NCCCC[C@H](NC(=O)[C@H](CO)NC(=O)[C@@H]1CCCN1C(=O)CNC(=O)CNC(=O)[C@H](CC(N)=O)NC(=O)[C@H](CCCCN)NC(=O)[C@H](CC(C)C)NC(=O)[C@H](Cc1c[nH]c2ccccc12)NC(=O)[C@H](CSCC(=O)N[C@@H]1O[C@H](CO)[C@@H](O[C@@H]2O[C@H](CO)[C@@H](O[C@@H]3O[C@H](CO[C@H]4O[C@H](CO)[C@@H](O)[C@H](O)[C@@H]4O[C@@H]4O[C@H](CO)[C@@H](O[C@@H]5O[C@H](CO[C@]6(C(=O)OCc7ccccc7)C[C@H](O)[C@@H](NC(C)=O)[C@H]([C@H](O)[C@H](O)CO)O6)[C@H](O)[C@H](O)[C@H]5O)[C@H](O)[C@H]4NC(C)=O)[C@@H](O)[C@H](O[C@H]4O[C@H](CO)[C@@H](O)[C@H](O)[C@@H]4O[C@@H]4O[C@H](CO)[C@@H](O[C@@H]5O[C@H](CO[C@]6(C(=O)OCc7ccccc7)C[C@H](O)[C@@H](NC(C)=O)[C@H]([C@H](O)[C@H](O)CO)O6)[C@H](O)[C@H](O)[C@H]5O)[C@H](O)[C@H]4NC(C)=O)[C@@H]3O)[C@H](O)[C@H]2NC(C)=O)[C@H](O)[C@H]1NC(C)=O)NC(=O)[C@@H](NC(=O)[C@H](Cc1ccccc1)NC(=O)[C@H](CC(C)C)NC(=O)[C@H](CCCNC(=N)N)NC(=O)[C@@H](NC(=O)[C@H](C)NC(=O)[C@H](CSCC(=O)N[C@@H]1O[C@H](CO)[C@@H](O[C@@H]2O[C@H](CO)[C@@H](O[C@@H]3O[C@H](CO[C@H]4O[C@H](CO)[C@@H](O)[C@H](O)[C@@H]4O[C@@H]4O[C@H](CO)[C@@H](O[C@@H]5O[C@H](CO[C@]6(C(=O)OCc7ccccc7)C[C@H](O)[C@@H](NC(C)=O)[C@H]([C@H](O)[C@H](O)CO)O6)[C@H](O)[C@H](O)[C@H]5O)[C@H](O)[C@H]4NC(C)=O)[C@@H](O)[C@H](O[C@H]4O[C@H](CO)[C@@H](O)[C@H](O)[C@@H]4O[C@@H]4O[C@H](CO)[C@@H](O[C@@H]5O[C@H](CO[C@]6(C(=O)OCc7ccccc7)C[C@H](O)[C@@H](NC(C)=O)[C@H]([C@H](O)[C@H](O)CO)O6)[C@H](O)[C@H](O)[C@H]5O)[C@H](O)[C@H]4NC(C)=O)[C@@H]3O)[C@H](O)[C@H]2NC(C)=O)[C@H](O)[C@H]1NC(C)=O)NC(=O)[C@H](CCC(=O)O)NC(=O)[C@H](CCC(=O)O)NC(=O)[C@H](CCSC)NC(=O)[C@H](CCC(N)=O)NC(=O)[C@H](CCCCN)NC(=O)[C@H](CO)NC(=O)[C@H](CC(C)C)NC(=O)[C@H](CC(=O)O)NC(=O)[C@H](CO)NC(=O)[C@@H](NC(=O)[C@H](Cc1ccccc1)NC(=O)[C@@H](NC(=O)CNC(=O)[C@H](CCC(=O)O)NC(=O)CNC(=O)[C@@H](N)Cc1c[nH]cn1)[C@@H](C)O)[C@@H](C)O)C(C)C)[C@@H](C)CC)C(=O)O [AGM-212(E17C-11 sugar & E24C-11 sugar)]	9.7 ± 1.2	–	Insulin secretion from rat islets (rat islets; 10 nM analog, Table 4): 6763.40 ± 32.83 pg/mL; Insulin secretion from rat islets (rat islets; 100 nM analog, Table 4): 14650.94 ± 3305.28 pg/mL
CCCCCCCCCC(=O)NCCCC[C@H](NC(=O)[C@H](CO)NC(=O)[C@@H]1CCCN1C(=O)CNC(=O)CNC(=O)[C@H](CC(N)=O)NC(=O)[C@H](CCCCN)NC(=O)[C@H](CC(C)C)NC(=O)[C@H](Cc1c[nH]c2ccccc12)NC(=O)[C@H](CCC(=O)O)NC(=O)[C@@H](NC(=O)[C@H](Cc1ccccc1)NC(=O)[C@H](CC(C)C)NC(=O)[C@H](CCCNC(=N)N)NC(=O)[C@@H](NC(=O)[C@H](C)NC(=O)[C@H](CSCC(=O)N[C@@H]1O[C@H](CO)[C@@H](O[C@@H]2O[C@H](CO)[C@@H](O[C@@H]3O[C@H](CO[C@H]4O[C@H](CO)[C@@H](O)[C@H](O)[C@@H]4O[C@@H]4O[C@H](CO)[C@@H](O[C@@H]5O[C@H](CO[C@]6(C(=O)OCc7ccccc7)C[C@H](O)[C@@H](NC(C)=O)[C@H]([C@H](O)[C@H](O)CO)O6)[C@H](O)[C@H](O)[C@H]5O)[C@H](O)[C@H]4NC(C)=O)[C@@H](O)[C@H](O[C@H]4O[C@H](CO)[C@@H](O)[C@H](O)[C@@H]4O[C@@H]4O[C@H](CO)[C@@H](O[C@@H]5O[C@H](CO[C@]6(C(=O)OCc7ccccc7)C[C@H](O)[C@@H](NC(C)=O)[C@H]([C@H](O)[C@H](O)CO)O6)[C@H](O)[C@H](O)[C@H]5O)[C@H](O)[C@H]4NC(C)=O)[C@@H]3O)[C@H](O)[C@H]2NC(C)=O)[C@H](O)[C@H]1NC(C)=O)NC(=O)[C@H](CCC(=O)O)NC(=O)[C@H](CCC(=O)O)NC(=O)[C@H](CCSC)NC(=O)[C@H](CCC(N)=O)NC(=O)[C@H](CCCCN)NC(=O)[C@H](CO)NC(=O)[C@H](CC(C)C)NC(=O)[C@H](CC(=O)O)NC(=O)[C@H](CO)NC(=O)[C@@H](NC(=O)[C@H](Cc1ccccc1)NC(=O)[C@@H](NC(=O)CNC(=O)[C@H](CCC(=O)O)NC(=O)CNC(=O)[C@@H](N)Cc1c[nH]cn1)[C@@H](C)O)[C@@H](C)O)C(C)C)[C@@H](C)CC)C(=O)O [AGM-212(E17C-11 sugar)]	10.1 ± 1.2	–	Insulin secretion from rat islets (rat islets; 10 nM analog, Table 3): 7895.09 ± 2457.36 pg/mL; Insulin secretion from rat islets (rat islets; 100 nM analog, Table 3): 9523.02 ± 2852.08 pg/mL
B1	–	10.1	–
B2	–	9.8	–
B3	–	9.7	–
